Measurements taken from ChEMBL document CHEMBL1909046, “DrugMatrix in vitro pharmacology data”.

Key:
[1] = target: Insulin receptor (Rattus norvegicus, UniProt P15127); assay type: cell membranes, Wistar, Liver, Membrane; note: in other assays of this panel Not Active means under 50% inhibition at 10 µM
[2] = target: T1, Neuropeptide Y receptor type 2 (Homo sapiens, UniProt P49146); assay type: cell membranes, KAN-TS, Membrane; settings: kan-ts; note: in other assays of this panel Not Active means under 50% inhibition at 10 µM
T1 sequence (P49146 whole entry): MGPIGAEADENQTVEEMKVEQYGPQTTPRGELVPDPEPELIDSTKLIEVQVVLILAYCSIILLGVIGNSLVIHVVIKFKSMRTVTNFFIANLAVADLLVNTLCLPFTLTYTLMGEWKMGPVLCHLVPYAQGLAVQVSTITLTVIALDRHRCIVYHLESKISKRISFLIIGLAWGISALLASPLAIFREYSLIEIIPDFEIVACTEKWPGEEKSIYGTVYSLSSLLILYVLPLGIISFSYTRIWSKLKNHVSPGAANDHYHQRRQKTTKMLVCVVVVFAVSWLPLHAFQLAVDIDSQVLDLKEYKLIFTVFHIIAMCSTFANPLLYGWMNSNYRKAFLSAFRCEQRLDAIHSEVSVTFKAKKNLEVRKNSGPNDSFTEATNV

[3] = target: Platelet-activating factor receptor (Homo sapiens, UniProt P25105); assay type: tissue-based; note: in other assays of this panel Not Active means under 50% inhibition at 10 µM
Sequence of Platelet-activating factor receptor (P25105 whole entry): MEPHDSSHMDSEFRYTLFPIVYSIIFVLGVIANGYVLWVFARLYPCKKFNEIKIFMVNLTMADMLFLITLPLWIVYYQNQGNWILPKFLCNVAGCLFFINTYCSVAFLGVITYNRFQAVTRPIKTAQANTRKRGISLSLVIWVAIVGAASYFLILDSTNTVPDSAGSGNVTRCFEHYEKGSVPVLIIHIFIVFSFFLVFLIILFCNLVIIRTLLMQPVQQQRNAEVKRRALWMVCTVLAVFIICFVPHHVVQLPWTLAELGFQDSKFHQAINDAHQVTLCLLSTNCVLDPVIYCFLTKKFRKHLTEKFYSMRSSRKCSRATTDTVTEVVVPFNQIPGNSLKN

[4] = target: 5-hydroxytryptamine receptor 6 (Homo sapiens, UniProt P50406); assay type: cell membranes, HeLa, Membrane; settings: hela; note: in other assays of this panel Not Active means under 50% inhibition at 10 µM
Sequence of 5-hydroxytryptamine receptor 6 (P50406 whole entry): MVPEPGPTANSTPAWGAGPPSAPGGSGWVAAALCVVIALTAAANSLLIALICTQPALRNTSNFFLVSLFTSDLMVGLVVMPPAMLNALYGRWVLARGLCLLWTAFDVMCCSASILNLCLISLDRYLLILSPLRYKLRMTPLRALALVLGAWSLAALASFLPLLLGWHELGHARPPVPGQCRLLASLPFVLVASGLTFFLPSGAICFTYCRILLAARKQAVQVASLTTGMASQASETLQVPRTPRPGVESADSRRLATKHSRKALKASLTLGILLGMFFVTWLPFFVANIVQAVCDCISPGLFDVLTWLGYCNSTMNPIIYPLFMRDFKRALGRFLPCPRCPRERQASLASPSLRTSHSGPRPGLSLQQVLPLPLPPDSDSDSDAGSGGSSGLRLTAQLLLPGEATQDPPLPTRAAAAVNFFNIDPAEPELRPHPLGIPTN

[5] = target: 5-hydroxytryptamine receptor 1B (Rattus norvegicus, UniProt P28564); assay type: cell membranes, Wistar, Cerebral cortex, Membrane; note: in other assays of this panel Not Active means under 50% inhibition at 10 µM
Sequence of 5-hydroxytryptamine receptor 1B (P28564 whole entry): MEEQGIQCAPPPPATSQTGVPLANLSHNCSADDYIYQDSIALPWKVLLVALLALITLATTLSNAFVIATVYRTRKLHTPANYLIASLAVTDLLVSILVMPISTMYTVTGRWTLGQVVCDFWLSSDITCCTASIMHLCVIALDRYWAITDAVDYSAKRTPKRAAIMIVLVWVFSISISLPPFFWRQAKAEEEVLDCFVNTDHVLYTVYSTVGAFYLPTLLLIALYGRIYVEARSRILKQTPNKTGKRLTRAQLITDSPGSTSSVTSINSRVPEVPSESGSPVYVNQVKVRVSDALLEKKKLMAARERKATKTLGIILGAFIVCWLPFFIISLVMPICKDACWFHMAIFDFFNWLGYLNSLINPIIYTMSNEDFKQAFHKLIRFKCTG

[6] = DRUGMATRIX: Sodium/nucleoside co-transporter radioligand binding (ligand: nitrobenzylthioinosine); assay type: cell membranes, Cavia porcellus, Dunkin-Hartley, Cerebral cortex, Membrane; settings: Not Active = under 50% inhibition at 10 µM
[7] = DRUGMATRIX: Purinergic P2X radioligand binding (ligand: [3H] alpha, beta-Methylene-ATP); assay type: cell membranes, Oryctolagus cuniculus, New Zealand albino, Urinary bladder, Membrane; settings: Not Active = under 50% inhibition at 10 µM

Sequence of Insulin receptor (P15127 27-759 limits assumed): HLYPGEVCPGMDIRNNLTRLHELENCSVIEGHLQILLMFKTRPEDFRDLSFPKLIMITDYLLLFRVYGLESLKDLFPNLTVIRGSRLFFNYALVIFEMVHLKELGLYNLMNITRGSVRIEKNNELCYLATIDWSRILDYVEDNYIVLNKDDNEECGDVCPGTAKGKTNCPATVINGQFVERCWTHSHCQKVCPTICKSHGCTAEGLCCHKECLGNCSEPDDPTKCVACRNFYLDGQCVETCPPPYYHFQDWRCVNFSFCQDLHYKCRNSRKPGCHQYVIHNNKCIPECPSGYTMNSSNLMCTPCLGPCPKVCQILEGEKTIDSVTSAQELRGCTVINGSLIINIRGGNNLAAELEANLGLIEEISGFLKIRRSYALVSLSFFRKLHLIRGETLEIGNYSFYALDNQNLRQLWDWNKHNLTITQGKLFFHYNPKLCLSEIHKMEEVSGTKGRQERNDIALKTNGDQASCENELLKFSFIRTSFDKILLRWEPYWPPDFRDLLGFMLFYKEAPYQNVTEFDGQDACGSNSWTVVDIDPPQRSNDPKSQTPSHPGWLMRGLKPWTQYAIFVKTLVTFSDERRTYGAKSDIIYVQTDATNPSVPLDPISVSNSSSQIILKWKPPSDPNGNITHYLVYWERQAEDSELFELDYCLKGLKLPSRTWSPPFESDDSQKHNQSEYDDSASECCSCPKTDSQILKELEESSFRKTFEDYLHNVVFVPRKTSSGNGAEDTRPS
Sequence of Insulin receptor (P15127 764-1383 limits assumed): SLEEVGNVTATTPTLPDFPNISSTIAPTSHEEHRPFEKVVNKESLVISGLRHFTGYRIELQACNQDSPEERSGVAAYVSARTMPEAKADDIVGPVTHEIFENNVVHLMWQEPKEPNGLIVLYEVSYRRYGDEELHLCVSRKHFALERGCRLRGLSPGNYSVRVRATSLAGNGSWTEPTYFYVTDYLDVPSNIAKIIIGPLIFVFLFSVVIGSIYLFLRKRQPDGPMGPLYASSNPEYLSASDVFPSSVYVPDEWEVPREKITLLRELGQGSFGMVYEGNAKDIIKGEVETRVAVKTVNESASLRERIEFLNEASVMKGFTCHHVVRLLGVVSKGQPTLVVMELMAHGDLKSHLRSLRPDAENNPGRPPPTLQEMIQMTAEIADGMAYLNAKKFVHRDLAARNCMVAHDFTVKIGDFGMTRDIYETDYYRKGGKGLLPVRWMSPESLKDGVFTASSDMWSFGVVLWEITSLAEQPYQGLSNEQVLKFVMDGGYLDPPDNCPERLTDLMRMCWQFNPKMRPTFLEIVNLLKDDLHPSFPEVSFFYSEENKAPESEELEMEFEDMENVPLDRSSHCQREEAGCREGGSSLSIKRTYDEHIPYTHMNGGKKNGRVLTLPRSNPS

NC(=O)N1C(=O)/C(=C(\O)c2cccs2)c2cc(Cl)ccc21 [TENIDAP]
Not Active: IC50 [1] | IC50 [2] | IC50 [3] | IC50 [4] | IC50 [5] | IC50 [6] | Ki [6] | IC50 [7] | Ki [7]

COc1cc2nc(N3CCN(C(=O)C4CCCO4)CC3)nc(N)c2cc1OC (configuration not stated) [TERAZOSIN]
Not Active: IC50 [1] | IC50 [2] | IC50 [3] | IC50 [4] | IC50 [5] | IC50 [6] | Ki [6] | IC50 [7] | Ki [7]

CN(C/C=C/C#CC(C)(C)C)Cc1cccc2ccccc12 [TERBINAFINE]
Not Active: IC50 [1] | IC50 [2] | IC50 [3] | IC50 [4] | IC50 [5] | IC50 [6] | Ki [6] | IC50 [7] | Ki [7]

CCCCNc1ccc(C(=O)OCCN(C)C)cc1 [TETRACAINE]
Not Active: IC50 [1] | IC50 [2] | IC50 [3] | IC50 [4] | IC50 [5] | IC50 [6] | Ki [6] | IC50 [7] | Ki [7]

Cn1c(=O)c2nc[nH]c2n(C)c1=O.O [THEOPHYLLINE]
Not Active: IC50 [1] | IC50 [2] | IC50 [3] | IC50 [4] | IC50 [5] | IC50 [6] | Ki [6] | IC50 [7] | Ki [7]

CS(=O)(=O)c1ccc([C@@H](O)[C@@H](CO)NC(=O)C(Cl)Cl)cc1 [THIAMPHENICOL]
Not Active: IC50 [1] | IC50 [2] | IC50 [3] | IC50 [4] | IC50 [5] | IC50 [6] | Ki [6] | IC50 [7] | Ki [7]

CCN(CC)CCNC(=O)c1cc(S(C)(=O)=O)ccc1OC [TIAPRIDE]
Not Active: IC50 [1] | IC50 [2] | IC50 [3] | IC50 [4] | IC50 [5] | IC50 [6] | Ki [6] | IC50 [7] | Ki [7]

Clc1ccccc1CN1CCc2sccc2C1 [TICLOPIDINE]
Not Active: IC50 [1] | IC50 [2] | IC50 [3] | IC50 [4] | IC50 [5] | IC50 [6] | Ki [6] | IC50 [7] | Ki [7]

NC1CCN(c2nc3c(cc2F)c(=O)c(C(=O)O)cn3-c2ccc(F)cc2F)C1 (configuration not stated) [TOSUFLOXACIN]
Not Active: IC50 [1] | IC50 [2] | IC50 [3] | IC50 [4] | IC50 [5] | IC50 [6] | Ki [6] | IC50 [7] | Ki [7]

O=C(Nc1ccc(Br)cc1)c1cc(Br)cc(Br)c1O [TRIBROMSALAN]
Not Active: IC50 [1] | IC50 [2] | IC50 [3] | IC50 [4] | IC50 [5] | IC50 [6] | Ki [6] | IC50 [7] | Ki [7]

CC(c1cc2ccccc2s1)N(O)C(N)=O (configuration not stated) [ZILEUTON]
Not Active: IC50 [1] | IC50 [2] | IC50 [3] | IC50 [4] | IC50 [5] | IC50 [6] | Ki [6] | IC50 [7] | Ki [7]

MANGANESE CHLORIDE ANHYDROUS
Not Active: IC50 [1] | Ki [1] | IC50 [2] | Ki [2] | IC50 [3] | Ki [3] | IC50 [4] | Ki [4] | IC50 [5] | Ki [5] | IC50 [6] | Ki [6] | IC50 [7] | Ki [7]

SODIUM ORTHOVANAD
Not Active: IC50 [1] | Ki [1] | IC50 [2] | Ki [2] | IC50 [3] | Ki [3] | IC50 [4] | Ki [4] | IC50 [5] | Ki [5] | IC50 [6] | Ki [6] | IC50 [7] | Ki [7]
